Results taken from US10351566B2, “Therapeutic compounds for pain and synthesis thereof” (priority 2015, dated 2019).
Values joined by “and” are separate entries in the source; they are usually repeats but may differ in a detail not shown here. Identical values can stand only once. Like-named read-outs stand apart in the source and are kept apart here.

Tests used:
in vitro [1] = format: in vitro ADME; settings: human, Caco-2
Method: Formula 1 was evaluated for cellular permeability using Caco-2 cell monolayers. Both the apical-to-basolateral (A-B) and basolateral-to-apical (B-A) bidirectional permeability and efflux ratios were evaluated in the assay.

[2] = format: in vitro ADME; settings: rat plasma
Method: (§1) Formula 1 was stable in both mouse and human plasma, with t90 values greater than 4 h, whereas it was unstable in rat plasma, with a t90 of less than 1 h (t90 should be greater than 4 h in order to be considered stable). Most of the efficacy and safety pharmacology was therefore run in mice.

human plasma = format: in vitro ADME
Method: as §1

mouse plasma = format: in vitro ADME
Method: as §1

in vivo [3] = assay: in vivo; set-up: species or system mice; settings: for HL_Lambda_z / Cl_F_obs / Vz_F_obs / AUC(0-t) / Cmax / Tmax / AUC(0-inf): Mean; for Kp / AUC(0-t) / Cmax / Tmax / AUC(0-inf): mouse, in vivo; for Kp: po, 50 mg/kg, mice, oral 50 mg/kg, 5 min to 8 h; for AUC(0-inf): read-out: AUCINF_obs
Method: Tissue distribution studies were conducted by administration of the compound to mice at a dose of 50 mg/kg orally and intravenously. Plasma and tissue samples were collected at various times from 5 min to 8 h. The tissue-to-plasma concentration ratios measured after oral dosing were: 0.6 (range: 0.3-1.1, brain), 3.2 (range: 1.9-5.0, spinal cord), 6.5 (range: 0.9-10.3, liver), 24.0 (range: 5.1-59.9, lung), 6.6 (range: 1.2-14.9, heart), 16.9 (range: 4.3-26.8, kidney), 77.5 (range: 11.5-341, spleen), 29.2 (range: 6.3-50.2, cecum), 67.4 (range: 11.6-326, colon), 5.2 (range: 2.1-8.0, testes). The concentration-time profiles of the compound in these tissues generally followed those in plasma. The tissue-to-plasma concentration ratios in these selected tissues are generally within the normal ranges of the marketed drugs.
There are complex equilibria between the compound concentrations in blood, CSF and spinal cord. A high concentration in the CSF would yield a large concentration in the spinal cord. Since Formula 1 is a Pgp substrate and highly tissue-bound, its higher concentrations in the spinal cord tissue compared to the brain tissue are not surprising (Table 2).

in vitro [4] = format: in vitro ADME; settings: 1 μM, read-out: plasma protein bound (converted)
Method: The plasma protein binding assay for Formula 1 was conducted in mouse and human plasma at a single concentration of 1 μM using the method of equilibrium dialysis. […] The plasma protein binding of the compound is acceptable.

in vivo [5] = settings: mice; for half-life: read-out: terminal half-life (converted)
Method: Pharmacokinetic studies of MD-354 were performed in mice following 50 mg/kg oral and 5 mg/kg intravenous administration (FIG. 17).
The plasma concentration decreased in a multi-phasic manner to 0.76 ng/mL at 8 hours post-dose.

[6] = format: in vivo; settings: naïve rats, dosing for 7 days
Excerpt: At 4 days, vehicle-treated animals gained approximately 1% body weight, going from 25.24±0.74 g to 25.50±0.64 g. Formula 1 treated animals went from 25.28±1.04 g to 25.82±1.25 g.

hERG = hERG (Homo sapiens, UniProt Q12809); assay: hERG in vitro safety pharmacology
Method: The IC50 for hERG was greater than 10 μM. A generally accepted safety margin against hERG and other important cardiac targets is ≥30 (a safety margin is calculated as: IC50/Cmax, free or EC50/Cmax, free).

in vitro [7] = format: in vitro ADME; settings: 1 μM; for microsomal CLint: read-out: intrinsic clearance (CLint)
Method: Metabolic stability studies in mouse, rat and human liver microsomes were performed at a compound concentration of 1 μM.

[8] = Brain, second block of the table, route not given
[9] = Plasma, second block of the table, route not given
[10] = Spinal Cord, second block of the table, route not given
[11] = oral, two additional sets of data, listed as 354

Chain of hERG (Q12809 whole entry): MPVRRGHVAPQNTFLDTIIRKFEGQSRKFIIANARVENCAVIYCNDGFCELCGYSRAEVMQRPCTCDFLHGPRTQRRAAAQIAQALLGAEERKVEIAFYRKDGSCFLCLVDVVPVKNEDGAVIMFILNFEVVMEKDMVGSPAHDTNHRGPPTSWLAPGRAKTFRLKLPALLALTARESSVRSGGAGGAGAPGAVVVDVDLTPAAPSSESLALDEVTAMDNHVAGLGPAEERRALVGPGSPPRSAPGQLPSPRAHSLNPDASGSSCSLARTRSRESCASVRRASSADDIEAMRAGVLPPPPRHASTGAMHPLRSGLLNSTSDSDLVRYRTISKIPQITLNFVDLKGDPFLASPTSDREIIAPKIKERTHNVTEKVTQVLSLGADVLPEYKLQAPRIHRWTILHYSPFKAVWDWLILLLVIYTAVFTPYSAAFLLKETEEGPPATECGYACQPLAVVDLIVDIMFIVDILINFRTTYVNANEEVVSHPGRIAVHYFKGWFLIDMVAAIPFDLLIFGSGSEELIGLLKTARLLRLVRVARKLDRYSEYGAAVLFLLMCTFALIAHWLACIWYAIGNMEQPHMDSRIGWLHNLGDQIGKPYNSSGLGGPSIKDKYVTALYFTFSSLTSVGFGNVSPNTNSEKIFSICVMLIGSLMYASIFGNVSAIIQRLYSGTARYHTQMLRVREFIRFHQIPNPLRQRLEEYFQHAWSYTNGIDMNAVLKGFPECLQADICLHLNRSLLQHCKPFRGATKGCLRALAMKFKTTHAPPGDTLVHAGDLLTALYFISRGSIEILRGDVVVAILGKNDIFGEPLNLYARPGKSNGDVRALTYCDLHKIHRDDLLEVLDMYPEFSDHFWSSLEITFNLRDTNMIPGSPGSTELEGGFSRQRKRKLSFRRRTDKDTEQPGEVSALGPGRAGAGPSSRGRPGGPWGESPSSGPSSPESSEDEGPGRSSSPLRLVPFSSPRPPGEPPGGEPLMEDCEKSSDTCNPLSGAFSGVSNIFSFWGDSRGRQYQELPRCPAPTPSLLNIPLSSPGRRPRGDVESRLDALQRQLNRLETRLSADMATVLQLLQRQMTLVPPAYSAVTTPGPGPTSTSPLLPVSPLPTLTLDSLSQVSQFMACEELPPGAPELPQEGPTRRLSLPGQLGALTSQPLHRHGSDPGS

In the case of `CC(C)(C)C(=O)O[C@@H]1[C@@H]2[C@H]3C[C@H](C[C@@H]1N3Cc1ccccn1)CN2C(=O)CC(F)(F)F` (relative stereo) [Formula 1, (2S*,3S*,3aS*,6R*,7aR*)-1-(pyridin-2-ylmethyl)-4-(3,3,3-trifluoropropanoyl)octahydro-1H-2,6-methanopyrrolo[3,2-b]pyridin-3-yl pivalate], the efflux ratio (in vitro [1]) is reported as 10.4, the Papp A→B (in vitro [1]; apical-to-basolateral) is reported as 6.6 ×10⁻⁶ cm/s and the Papp B→A (in vitro [1]; basolateral-to-apical) is reported as 68.3 ×10⁻⁶ cm/s. The t90 [2] was “less than 1 h”, the t90 (human plasma) was “greater than 4 h” and the t90 (mouse plasma) was “greater than 4 h”. The HL_Lambda_z (in vivo [3]; [8]) was 0.74 h, the Cl_F_obs (in vivo [3]; Plasma, SC) was 120.292 mL/min/kg and the HL_Lambda_z (in vivo [3]; Plasma, SC) was 0.37 h. The Vz_F_obs (in vivo [3]; Plasma, SC) was 3.84783 L/kg, the Cl_F_obs (in vivo [3]; [9]) was 672.2167 mL/min/kg and the HL_Lambda_z (in vivo [3]; [9]) was 1.20 h. The Vz_F_obs (in vivo [3]; [9]) was 72.1615 L/kg, the HL_Lambda_z (in vivo [3]; Spinal Cord, SC) was 0.53 h and the HL_Lambda_z (in vivo [3]; [10]) was 1.56 h. The Kp (in vivo [3]; male, read-out: tissue-to-plasma concentration ratio, testes) was 5.2, the Kp (in vivo [3]; male, read-out: tissue-to-plasma concentration ratio, testes, range) was 2.1 to 8 and the AUC(0-t) (in vivo [3]; [8]) was 2770 ng·h/mL. For the same molecule, the Cmax (in vivo [3]; [8]) was 6750 ng/mL, the Tmax (in vivo [3]; [8]) was 4.8 min and the AUC(0-t) (in vivo [3]; [9]) was 2590 ng·h/mL. It also gave a Cmax (in vivo [3]; [9]) of 3080 ng/mL, an AUC(0-inf) (in vivo [3]; [9]) of 2610 ng·h/mL and an AUC(0-t) (in vivo [3]; [10]) of 15500 ng·h/mL. The Cmax (in vivo [3]; [10]) was 30000 ng/mL, the Kp (in vivo [3]; read-out: tissue-to-plasma concentration ratio, brain) was 0.6 and the Kp (in vivo [3]; read-out: tissue-to-plasma concentration ratio, brain, range) was 0.3 to 1.1. For the same molecule, the Kp (in vivo [3]; read-out: tissue-to-plasma concentration ratio, cecum) was 29.2, the Kp (in vivo [3]; read-out: tissue-to-plasma concentration ratio, cecum, range) was 6.3 to 50.2 and the Kp (in vivo [3]; read-out: tissue-to-plasma concentration ratio, colon) was 67.4. It also gave a Kp (in vivo [3]; read-out: tissue-to-plasma concentration ratio, colon, range) of 11.6 to 326, a Kp (in vivo [3]; read-out: tissue-to-plasma concentration ratio, heart) of 6.6 and a Kp (in vivo [3]; read-out: tissue-to-plasma concentration ratio, heart, range) of 1.2 to 14.9. The Kp (in vivo [3]; read-out: tissue-to-plasma concentration ratio, kidney) was 16.9, the Kp (in vivo [3]; read-out: tissue-to-plasma concentration ratio, kidney, range) was 4.3 to 26.8 and the Kp (in vivo [3]; read-out: tissue-to-plasma concentration ratio, liver) was 6.5. It also gave a Kp (in vivo [3]; read-out: tissue-to-plasma concentration ratio, liver, range) of 0.9 to 10.3, a Kp (in vivo [3]; read-out: tissue-to-plasma concentration ratio, lung) of 24 and a Kp (in vivo [3]; read-out: tissue-to-plasma concentration ratio, lung, range) of 5.1 to 59.9. The Kp (in vivo [3]; read-out: tissue-to-plasma concentration ratio, spinal cord) was 3.2, the Kp (in vivo [3]; read-out: tissue-to-plasma concentration ratio, spinal cord, range) was 1.9 to 5 and the Kp (in vivo [3]; read-out: tissue-to-plasma concentration ratio, spleen) was 77.5. For the same molecule, the Kp (in vivo [3]; read-out: tissue-to-plasma concentration ratio, spleen, range) was 11.5 to 341, the AUC(0-t) (in vivo [3]; sc, Brain) was 790 ng·h/mL and the Cmax (in vivo [3]; sc, Brain) was 1380 ng/mL. For the same molecule, the AUC(0-t) (in vivo [3]; sc, Plasma) was 1380 ng·h/mL, the Cmax (in vivo [3]; sc, Plasma) was 1900 ng/mL and the AUC(0-t) (in vivo [3]; sc, Spinal Cord) was 6210 ng·h/mL. It also gave a Cmax (in vivo [3]; sc, Spinal Cord) of 11900 ng/mL, a Tmax (in vivo [3]; Plasma, SC) of 15 min and an AUC(0-inf) (in vivo [3]; Plasma, SC) of 1390 ng·h/mL. The fraction unbound (in vitro [4]; human plasma) was 0.08, the fraction unbound (in vitro [4]; mouse plasma) was 0.16 and the “plasma concentration at 8 hours post-dose” value (in vivo [5]; intravenous 5 mg/kg) was 6.74 ng/mL. For the same molecule, the “plasma concentration at 8 hours post-dose” value (in vivo [5]; oral 50 mg/kg) was 0.76 ng/mL, the “time to peak plasma concentration” value (in vivo [5]; oral 50 mg/kg) was no more than 5 min and the “time to peak plasma concentration” value (in vivo [5]; oral, two additional sets of data) was no more than 5 min. The oral bioavailability (in vivo [5]; [11]) was 14.7%, the peak plasma concentration (in vivo [5]; [11]) was 3157 ng/mL and 3001 ng/mL and the “plasma concentration at 8 hours post-administration” value (in vivo [5]; [11]) was 8.4 ng/mL and 11.4 ng/mL. The terminal half-life (in vivo [5]; [11]) was 75 min, the half-life (in vivo [5]; mouse, in vivo, iv, 5 mg/kg, intravenous 5 mg/kg, excluding the 8 h time point) was 21 min and the bioavailability (in vivo [5]; mouse, in vivo, oral 50 mg/kg vs intravenous 5 mg/kg, read-out: absolute oral bioavailability) was 10.5%. It also gave a half-life (in vivo [5]; mouse, in vivo, po, 50 mg/kg, oral 50 mg/kg) of 51 min, a bioavailability (in vivo [5]; mouse, in vivo, po, oral, two additional sets of data, read-out: oral bioavailability) of 14.1% and a half-life (in vivo [5]; mouse, in vivo, po, oral, two additional sets of data) of 71.4 min. It also gave a C0 (in vivo [5]; mouse, in vivo, intravenous 5 mg/kg, read-out: initial plasma concentration (C0)) of 7940 ng/mL, a Vd (in vivo [5]; mouse, in vivo, intravenous 5 mg/kg, read-out: steady-state volume of distribution (Vss)) of 1.08 L/kg and a clearance (in vivo [5]; mouse, in vivo, intravenous 5 mg/kg, read-out: systemic plasma clearance (CLp)) of 46.1 mL/min/kg. For the same molecule, the Cmax (in vivo [5]; mouse, in vivo, oral 50 mg/kg, read-out: peak plasma concentration (Cmax)) was 1930 ng/mL, the “effect on body weight gain” value [6] was “did not affect body weight gain” and the IC50 (hERG) was greater than 10 µM. For the same molecule, the half-life (in vitro [7]; human liver microsomes) was 8 min, the microsomal CLint (in vitro [7]; human liver microsomes) was 174 µL/min/mg and the half-life (in vitro [7]; mouse liver microsomes) was less than 4 min. For the same molecule, the microsomal CLint (in vitro [7]; mouse liver microsomes) was greater than 346 µL/min/mg, the half-life (in vitro [7]; rat liver microsomes) was less than 4 min and the microsomal CLint (in vitro [7]; rat liver microsomes) was greater than 346 µL/min/mg.
